Reference: patent publication US7064128B2, “Preferentially substituted calcium channel blockers” (NeuroMed Technologies, Inc., priority 1998, dated 2006)
Where two headings read alike, the source gives them in different places.

Columns and labels:
Type in all cases: cell-based
[1] = molecular target: T1, L-type channels (α1C+α2δ+β1b cDNA subunits) (UniProt P22002); assay: Whole cell patch clamp, tonic and frequency dependent block, L-type channels in HEK 293 (Example 5)
T1 construct: other: α1C (L-type), 100 nM, 0.03 Hz; other: α1C (L-type), 100 nM, 0.2 Hz; other: α1C (L-type), 0.03 Hz; other: α1C (L-type), 0.2 Hz
Method: (§1) N-type calcium channel blocking activity was assayed in human embryonic kidney cells, HEK 293, stably transfected with the rat brain N-type calcium channel subunits (α1B+α2δ+β1b cDNA subunits). Alternatively, N-type calcium channels (α1B+α2δ+β1b cDNA subunits), L-type channels (α1C+α2δ+β1b cDNA subunits) and P/Q-type channels (α1A+α2δ+β1b cDNA subunits) were transiently expressed in HEK 293 cells. Briefly, cells were cultured in Dulbecco's modified eagle medium (DMEM) supplemented with 10% fetal bovine serum, 200 U/ml penicillin and 0.2 mg/ml streptomycin at 37° C. with 5% CO2. At 85% confluency cells were split with 0.25% trypsin/1 mM EDTA and plated at 10% confluency on glass coverslips. At 12 hours the medium was replaced and the cells transiently transfected using a standard calcium phosphate protocol and the appropriate calcium channel cDNAs. Fresh DMEM was supplied and the cells transferred to 28° C./5% CO2. Cells were incubated for 1 to 2 days to whole cell recording.
(§2) Whole cell patch clamp experiments were performed using an Axopatch 200B amplifier (Axon Instruments, Burlingame, Calif.) linked to a personal computer equipped with pCLAMP software. The external and internal recording solutions contained, respectively, 5 mM BaCl2, 1 mM MgCl2, 10 mM HEPES, 40 mM TEACl, 10 mM glucose, 87.5 mM CsCl (pH 7.2) and 108 mM CsMS, 4 mM MgCl2, 9 mM EGTA, 9 mM HEPES (pH 7.2). Currents were typically elicited from a holding potential of −80 mV to +10 mV using Clampex software (Axon Instruments). Typically, currents were first elicited with low frequency stimulation (0.03 Hz) and allowed to stabilize prior to application of the compounds. The compounds were then applied during the low frequency pulse trains for two to three minutes to assess tonic block, and subsequently the pulse frequency was increased to 0.2 Hz to assess frequency dependent block. Data were analyzed using Clampfit (Axon Instruments) and SigmaPlot 4.0 (Jandel Scientific).
(§3) Tables 2 and 3 show the results of similar experiments conducted with P/Q-type and L-type channels expressed in HEK 293 cells.

[2] = molecular target: T2, N-type calcium channels (α1B+α2δ+β1b cDNA subunits) (Rattus norvegicus, UniProt Q02294); assay: Whole cell patch clamp, tonic and frequency dependent block, N-type channels in HEK 293 (Example 5); settings: for % Block (100 nM) 0.03 Hz: 0.03 Hz (tonic block); for % Block (100 nM) 0.2 Hz: 0.2 Hz (frequency dependent block)
T2 construct: expressed in transfected cells
T2 sequence (Q02294 whole entry): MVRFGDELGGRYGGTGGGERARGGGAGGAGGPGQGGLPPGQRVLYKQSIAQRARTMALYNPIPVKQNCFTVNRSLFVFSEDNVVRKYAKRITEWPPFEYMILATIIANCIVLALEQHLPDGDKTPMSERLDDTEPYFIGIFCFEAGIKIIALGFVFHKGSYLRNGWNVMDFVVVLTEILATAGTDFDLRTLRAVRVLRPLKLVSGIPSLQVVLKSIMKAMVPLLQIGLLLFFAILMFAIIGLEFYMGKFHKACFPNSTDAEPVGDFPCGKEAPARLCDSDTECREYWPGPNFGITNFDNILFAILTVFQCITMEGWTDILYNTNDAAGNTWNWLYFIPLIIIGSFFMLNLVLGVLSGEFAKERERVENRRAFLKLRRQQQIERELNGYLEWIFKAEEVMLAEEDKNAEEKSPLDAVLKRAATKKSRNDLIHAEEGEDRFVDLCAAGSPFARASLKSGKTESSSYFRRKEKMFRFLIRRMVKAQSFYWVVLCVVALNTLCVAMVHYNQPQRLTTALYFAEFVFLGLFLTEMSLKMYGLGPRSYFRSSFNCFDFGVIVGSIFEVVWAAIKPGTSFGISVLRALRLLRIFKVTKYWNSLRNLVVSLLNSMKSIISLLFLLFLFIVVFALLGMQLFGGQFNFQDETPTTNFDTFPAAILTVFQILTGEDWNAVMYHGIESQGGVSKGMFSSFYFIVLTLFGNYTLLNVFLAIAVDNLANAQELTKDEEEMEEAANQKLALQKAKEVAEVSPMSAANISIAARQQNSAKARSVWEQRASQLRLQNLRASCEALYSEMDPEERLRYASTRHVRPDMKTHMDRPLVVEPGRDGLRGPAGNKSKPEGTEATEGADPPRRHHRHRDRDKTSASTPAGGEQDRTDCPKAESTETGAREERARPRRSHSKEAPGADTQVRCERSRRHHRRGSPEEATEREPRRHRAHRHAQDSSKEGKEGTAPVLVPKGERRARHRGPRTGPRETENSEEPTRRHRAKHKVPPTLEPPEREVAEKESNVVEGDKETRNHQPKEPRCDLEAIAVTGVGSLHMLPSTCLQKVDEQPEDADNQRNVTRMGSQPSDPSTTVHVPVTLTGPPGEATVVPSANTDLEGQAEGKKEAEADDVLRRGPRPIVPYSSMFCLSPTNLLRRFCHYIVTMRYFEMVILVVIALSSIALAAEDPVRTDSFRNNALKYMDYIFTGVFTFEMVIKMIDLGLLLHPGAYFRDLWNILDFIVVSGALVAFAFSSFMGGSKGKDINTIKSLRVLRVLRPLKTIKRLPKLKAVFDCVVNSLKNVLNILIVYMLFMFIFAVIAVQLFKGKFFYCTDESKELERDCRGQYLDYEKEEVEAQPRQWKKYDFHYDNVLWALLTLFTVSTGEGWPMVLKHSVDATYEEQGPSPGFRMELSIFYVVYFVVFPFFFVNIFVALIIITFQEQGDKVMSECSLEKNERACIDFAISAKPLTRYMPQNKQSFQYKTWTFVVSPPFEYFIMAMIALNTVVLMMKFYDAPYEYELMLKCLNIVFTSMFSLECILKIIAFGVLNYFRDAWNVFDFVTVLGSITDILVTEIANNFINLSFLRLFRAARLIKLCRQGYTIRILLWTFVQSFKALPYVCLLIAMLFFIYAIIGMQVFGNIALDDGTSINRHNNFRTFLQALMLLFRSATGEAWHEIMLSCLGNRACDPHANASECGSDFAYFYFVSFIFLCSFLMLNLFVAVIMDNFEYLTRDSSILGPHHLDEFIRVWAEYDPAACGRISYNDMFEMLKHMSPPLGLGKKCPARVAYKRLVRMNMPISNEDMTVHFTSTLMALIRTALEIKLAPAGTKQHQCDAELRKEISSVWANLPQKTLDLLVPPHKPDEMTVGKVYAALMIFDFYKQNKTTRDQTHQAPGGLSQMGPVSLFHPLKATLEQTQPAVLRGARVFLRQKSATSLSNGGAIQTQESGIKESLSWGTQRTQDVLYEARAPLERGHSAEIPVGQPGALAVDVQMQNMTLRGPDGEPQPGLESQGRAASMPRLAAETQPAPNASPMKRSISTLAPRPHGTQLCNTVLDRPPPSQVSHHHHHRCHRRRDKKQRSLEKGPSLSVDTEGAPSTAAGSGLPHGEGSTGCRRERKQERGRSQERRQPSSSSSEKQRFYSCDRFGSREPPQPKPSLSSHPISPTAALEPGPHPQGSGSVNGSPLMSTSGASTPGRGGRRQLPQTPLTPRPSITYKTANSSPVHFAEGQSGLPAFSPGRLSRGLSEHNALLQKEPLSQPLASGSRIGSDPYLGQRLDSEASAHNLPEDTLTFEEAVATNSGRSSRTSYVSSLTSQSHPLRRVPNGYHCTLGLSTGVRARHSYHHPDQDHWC
T2 sequence (P54290 25-944 partner limits assumed): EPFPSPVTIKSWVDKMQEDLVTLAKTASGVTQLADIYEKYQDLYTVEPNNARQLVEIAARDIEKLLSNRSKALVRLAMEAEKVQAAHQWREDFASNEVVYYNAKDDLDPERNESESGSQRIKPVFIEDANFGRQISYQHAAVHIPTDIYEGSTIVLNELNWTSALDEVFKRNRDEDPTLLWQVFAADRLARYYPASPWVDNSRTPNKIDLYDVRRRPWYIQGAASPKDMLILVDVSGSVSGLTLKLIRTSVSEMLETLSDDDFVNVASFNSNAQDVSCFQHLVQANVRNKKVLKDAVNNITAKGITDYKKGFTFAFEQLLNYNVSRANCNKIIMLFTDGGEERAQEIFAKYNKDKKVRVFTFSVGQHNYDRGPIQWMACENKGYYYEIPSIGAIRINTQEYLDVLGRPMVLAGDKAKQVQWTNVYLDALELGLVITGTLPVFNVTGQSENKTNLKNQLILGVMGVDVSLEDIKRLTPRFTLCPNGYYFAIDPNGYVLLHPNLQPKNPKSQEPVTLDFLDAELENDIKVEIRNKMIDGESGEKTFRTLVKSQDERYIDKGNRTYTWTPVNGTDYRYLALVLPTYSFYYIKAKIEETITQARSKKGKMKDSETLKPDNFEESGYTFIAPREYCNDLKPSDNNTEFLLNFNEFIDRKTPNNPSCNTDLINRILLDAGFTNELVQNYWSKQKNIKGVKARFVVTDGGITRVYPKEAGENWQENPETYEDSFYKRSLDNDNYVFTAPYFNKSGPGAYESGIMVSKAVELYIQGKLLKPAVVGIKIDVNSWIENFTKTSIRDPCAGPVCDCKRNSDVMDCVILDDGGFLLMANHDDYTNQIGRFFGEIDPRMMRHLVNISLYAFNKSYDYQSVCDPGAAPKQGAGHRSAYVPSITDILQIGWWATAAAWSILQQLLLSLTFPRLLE
T2 sequence (P54290 945-1091 partner limits assumed): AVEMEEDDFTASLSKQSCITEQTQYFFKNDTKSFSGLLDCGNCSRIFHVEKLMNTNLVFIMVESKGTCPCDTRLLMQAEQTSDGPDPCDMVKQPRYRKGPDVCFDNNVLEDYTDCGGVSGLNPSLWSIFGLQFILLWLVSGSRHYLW
T2 sequence (P54283 whole entry partner): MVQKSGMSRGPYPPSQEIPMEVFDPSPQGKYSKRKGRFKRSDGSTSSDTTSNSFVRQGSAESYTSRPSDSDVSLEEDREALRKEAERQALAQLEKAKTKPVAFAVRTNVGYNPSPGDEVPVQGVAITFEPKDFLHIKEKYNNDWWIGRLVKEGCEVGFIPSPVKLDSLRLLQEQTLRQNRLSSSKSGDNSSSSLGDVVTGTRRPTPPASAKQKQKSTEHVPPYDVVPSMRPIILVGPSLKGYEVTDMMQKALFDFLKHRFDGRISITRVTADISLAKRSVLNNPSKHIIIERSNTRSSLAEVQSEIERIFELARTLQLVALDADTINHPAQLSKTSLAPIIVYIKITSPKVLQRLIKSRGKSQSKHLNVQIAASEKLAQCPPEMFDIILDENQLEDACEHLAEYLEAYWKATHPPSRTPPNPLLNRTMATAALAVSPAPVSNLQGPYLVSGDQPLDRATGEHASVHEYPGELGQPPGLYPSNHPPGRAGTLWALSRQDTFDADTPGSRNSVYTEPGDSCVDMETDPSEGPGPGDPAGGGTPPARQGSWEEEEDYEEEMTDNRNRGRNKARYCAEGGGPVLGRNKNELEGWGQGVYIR
Method: as §1, §2

[3] = molecular target: P/Q-type channels (α1A+α2δ+β1b cDNA subunits) (UniProt P54282); assay: Whole cell patch clamp, tonic and frequency dependent block, P/Q-type channels in HEK 293 (Example 5)
Method: as §1, §2, §3

[4] = molecular target: T3, rat α1B+α2b+β1b channels (N-type channels) (Rattus norvegicus, UniProt Q02294); assay: Whole cell patch recordings, N-type calcium channel block (Examples 1 and 4); settings: block of N-type calcium channels, HEK cells, 5 mM barium as charge carrier
T3 construct: expressed in transfected cells
T3 sequence (Q02294 whole entry): as the sequence (Q02294 whole entry) above
T3 sequence (P54290 25-944 partner limits assumed): as the sequence (P54290 25-944 partner limits assumed) above
T3 sequence (P54290 945-1091 partner limits assumed): as the sequence (P54290 945-1091 partner limits assumed) above
T3 sequence (P54283 whole entry partner): as the sequence (P54283 whole entry partner) above
Method: Antagonist activity was measured using whole cell patch recordings on human embryonic kidney cells either stably or transiently expressing rat α1B+α2b+β1b channels (N-type channels) with 5 mM barium as a charge carrier.
For transient expression, host cells, such as human embryonic kidney cells, HEK 293 (ATCC# CRL 1573) were grown in standard DMEM medium supplemented with 2 mM glutamine and 10% fetal bovine serum. HEK 293 cells were transfected by a standard calcium-phosphate-DNA coprecipitation method using the rat α1B+β1b+α2δ N-type calcium channel subunits in a vertebrate expression vector (for example, see Current Protocols in Molecular Biologyl ).
After an incubation period of from 24 to 72 hrs the culture medium was removed and replaced with external recording solution (see below). Whole cell patch clamp experiments were performed using an Axopatch 200B amplifier (Axon Instruments, Burlingame, Calif.) linked to an IBM compatible personal computer equipped with pCLAMP software. Borosilicate glass patch pipettes (Sutter Instrument Co., Novato, Calif.) were polished (Microforge, Narishige, Japan) to a resistance of about 4 MΩ when filled with cesium methanesulfonate internal solution (composition in MM: 109 CsCH3SO4, 4 MgCl2, 9 EGTA, 9 HEPES, pH 7.2). Cells were bathed in 5 mM Ba^++ (in mM: 5 BaCl2, 1 MgCl2, 10 HEPES, 40 tetraethylammonium chloride, 10 glucose, 87.5 CsCl pH 7.2). Current data shown were elicited by a train of 100 ms test pulses at 0.066 Hz from −100 mV and/or −80 mV to various potentials (min. −20 mV, max. +30 mV). Drugs were perfused directly into the vicinity of the cells using a microperfusion system.
Normalized dose-response curves were fit (Sigmaplot 4.0, SPSS Inc., Chicago, Ill.) by the Hill equation to determine IC50 values. Steady-state inactivation curves were plotted as the normalized test pulse amplitude following 5 s inactivating prepulses at +10 mV increments. Inactivation curves were fit (Sigmaplot 4.0) with the Boltzman equation, Ipeak (normalized)=1/(1+exp((V−Vh)z/25.6)), where V and Vh are the conditioning and half inactivation potentials, respectively, and z is the slope factor.

[5] = Table 4 summary, 0.2 Hz, L-type, unit not given in Table 4 (μM in Table 3), read-out: L (IC50 values)
[6] = α1C (L-type), 0.03 Hz, read-out: Estimated IC50 (μM) 0.03 Hz
[7] = α1C (L-type), 0.2 Hz, read-out: Estimated IC50 (μM) 0.2 Hz
[8] = Table 4 summary, 0.2 Hz, N-type, unit not given in Table 4 (μM in Table 1), read-out: N (IC50 values)
[9] = α1B (N-type), 0.03 Hz, read-out: Estimated IC50 (μM) 0.03 Hz
[10] = α1B (N-type), 0.2 Hz, read-out: Estimated IC50 (μM) 0.2 Hz
[11] = Table 4 summary, 0.2 Hz, P/Q-type, unit not given in Table 4 (μM in Table 2), read-out: P/Q (IC50 values)
[12] = α1A (P/Q-type), 0.03 Hz, read-out: Estimated IC50 (μM) 0.03 Hz
[13] = α1A (P/Q-type), 0.2 Hz, read-out: Estimated IC50 (μM) 0.2 Hz

| Compound | IC50 [1, 5] | % Block (100 nM) 0.03 Hz ([1]; α1C (L-type), 0.03 Hz) | % Block (100 nM) 0.2 Hz ([1]; α1C (L-type), 0.2 Hz) | IC50 [1, 6] | IC50 [1, 7] | IC50 [2, 8] | % Block (100 nM) 0.03 Hz ([2]; α1B (N-type)) | % Block (100 nM) 0.2 Hz ([2]; α1B (N-type)) | IC50 [2, 9] | IC50 [2, 10] | IC50 [3, 11] | % Block (100 nM) 0.03 Hz ([3]; α1A (P/Q-type), 0.03 Hz) | % Block (100 nM) 0.2 Hz ([3]; α1A (P/Q-type), 0.2 Hz) | IC50 [3, 12] | IC50 [3, 13] | IC50 [4] |
| --- | --- | --- | --- | --- | --- | --- | --- | --- | --- | --- | --- | --- | --- | --- | --- | --- |
| COc1ccc(CN2CCN(C(c3ccc(F)cc3)c3ccc(F)cc3)CC2)c(OC)c1OC [39-36-1 Lomerizine, Lomerizine, reference compound] | 0.15 µM | 26% | 44% | 0.29 µM | 0.15 µM | 0.09 µM | 24% | 54% | 0.39 µM | 0.09 µM | 0.07 µM | 25% | 57% | 0.46 µM | 0.07 µM |  |
| COc1cc(C(=O)N2CCN(C(c3ccc(F)cc3)c3ccc(F)cc3)CC2)cc(OC)c1OC [39-36-2] | 0.4 µM | 11% | 22% | 2.1 µM | 0.4 µM | 0.07 µM | 29% | 60% | 0.32 µM | 0.07 µM | 0.11 µM | 35% | 52% | 0.31 µM | 0.11 µM |  |
| COc1ccc(/C=C/C(=O)N2CCN(C(=O)CCCCC(c3ccccc3)c3ccccc3)CC2)cc1 [SH-123A] | 0.25 µM | 21% | 37% | 0.62 µM | 0.25 µM | 0.09 µM | 19% | 55% | 0.47 µM | 0.09 µM | 0.07 µM | 29% | 61% | 0.26 µM | 0.07 µM |  |
| O=C(/C=C/c1ccc2c(c1)OCO2)N1CCN(C(=O)CCCCC(c2ccccc2)c2ccccc2)CC1 [SH-123B] | 0.74 µM | 8% | 14% | 2.06 µM | 0.74 µM | 0.13 µM | 9% | 45% | 1.27 µM | 0.13 µM | 0.13 µM | 16% | 44% | 0.55 µM | 0.13 µM |  |
| Nc1ccc(/C=C/C(=O)N2CCN(C(=O)CCCCC(c3ccccc3)c3ccccc3)CC2)cc1 [SH-134] | 0.83 µM | 11% | 21% | 1.6 µM | 0.83 µM | 0.15 µM | 20% | 41% | 0.44 µM | 0.15 µM | 0.12 µM | 20% | 45% | 0.45 µM | 0.12 µM |  |
| CC(=O)Nc1ccc(/C=C/C(=O)N2CCN(C(=O)CCCCC(c3ccccc3)c3ccccc3)CC2)cc1 [SH-136] | 1.4 µM | 4% | 8% | 2.8 µM | 1.4 µM | 0.14 µM | 14% | 44% | 0.63 µM | 0.14 µM | 0.15 µM | 18% | 42% | 0.52 µM | 0.15 µM |  |
| O=C(CCCCC(c1ccccc1)C1CCCCC1)N1CCN(CC=Cc2ccccc2)CC1 (stereo not drawn) [Φ, Cy; CH(CH2)4CO; N; 1; CH═CHΦ] |  |  |  |  |  |  |  |  |  |  |  |  |  |  |  | 3900 nM |
| c1ccc(CCN2CCN(CCCCCC(c3ccccc3)C3CCCCC3)CC2)cc1 (stereo not drawn) [Φ, Cy; CH(CH2)5; N; 2; Φ] |  |  |  |  |  |  |  |  |  |  |  |  |  |  |  | 3100 nM |
| O=C(CCCCCC(c1ccccc1)C1CCCCC1)N1CCN(C(c2ccccc2)c2ccccc2)CC1 (stereo not drawn) [Φ, Cy; CH(CH2)5CO; N; 0; CHΦ2] |  |  |  |  |  |  |  |  |  |  |  |  |  |  |  | 10200 nM |
| c1ccc(C(CN2CCN(CC(c3ccccc3)C3CCCCC3)CC2)c2ccccc2)cc1 (stereo not drawn) [Φ, Cy; CHCH2; N; 1; CHΦ2] |  |  |  |  |  |  |  |  |  |  |  |  |  |  |  | 20000 nM |
| c1ccc(C(CN2CCN(CC3CCCCC3)CC2)C2CCCCC2)cc1 (stereo not drawn) [Φ, Cy; CHCH2; N; 1; Cy] |  |  |  |  |  |  |  |  |  |  |  |  |  |  |  | 20200 nM |
| c1ccc(CN2CCN(CC(c3ccccc3)C3CCCCC3)CC2)cc1 (stereo not drawn) [Φ, Cy; CHCH2; N; 1; Φ] |  |  |  |  |  |  |  |  |  |  |  |  |  |  |  | ~5000 nM |
| O=C(C(c1ccccc1)C1CCCCC1)N1CCN(CC(c2ccccc2)c2ccccc2)CC1 (stereo not drawn) [Φ, Cy; CHCO; N; 1; CHΦ2] |  |  |  |  |  |  |  |  |  |  |  |  |  |  |  | 35000 nM |
| O=C(C(c1ccccc1)C1CCCCC1)N1CCN(CC=Cc2ccccc2)CC1 (stereo not drawn) [Φ, Cy; CHCO; N; 1; CH═CHΦ] |  |  |  |  |  |  |  |  |  |  |  |  |  |  |  | 5900 nM |
| O=C(C(c1ccccc1)C1CCCCC1)N1CCN(Cc2ccccc2)CC1 (stereo not drawn) [Φ, Cy; CHCO; N; 1; Φ] |  |  |  |  |  |  |  |  |  |  |  |  |  |  |  | 14200 nM |
